From ChEMBL document CHEMBL1201862, “PubChem BioAssay data set” (2004) come the findings set out here.

Some test systems named below: NCI-H460; SR; COLO 205; BT-549; Malme-3M; SK-MEL-5; K562; SNB-19; RXF 393; NCI-H226; OVCAR-3; ACHN; HT-29; KM12; OVCAR-5; CAKI-1.
What all share (experiment): inhibition of tumour cell growth, NCI panel, 48 h

The structures appear in SMILES notation.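 Assay format: 96-well plates, 48-hour exposure. GI50 = concentration required for 50% inhibition of growth.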 The source made the active and inactive calls. No stated cut-off is given here; in the data, active = GI50 up to about 1.1 µM and inactive = higher.

Consider `Cc1cc(C)c2c(O)cc(-c3cccc(Cl)c3)nc2n1`, for which the GI50 in the assay with NCI-H460 was 0.0968 µM (active); in the assay with SR, 0.0855 µM (active); in the assay on COLO 205 it was 0.175 µM (active); in the assay with BT-549 it was 1.59 µM (inactive); with Malme-3M, 0.18 µM (active); in the assay on SK-MEL-5, 0.0518 µM (active). In addition, the GI50 is < 0.0199 µM (active) with K562; 0.349 µM (active) in the assay with SNB-19; 0.179 µM (active) in the assay on RXF 393; 0.391 µM (active) in the assay with NCI-H226; 0.106 µM (active) with OVCAR-3; 2.12 µM (inactive) with ACHN. Besides, the GI50 with HT-29 was 0.122 µM (active); in the assay with KM12, 0.0933 µM (active).
For `COc1ccc(N2C(=O)/C(=C\c3cccc(Oc4ccccc4)c3)S(=O)(=O)C2c2ccccc2)cc1` (stereo not given), the GI50 in the assay with NCI-H460 was 36.7 µM (inactive); in the assay with SR it was 3.7 µM (inactive); in the assay on COLO 205, 64.1 µM (inactive); with BT-549, 25.6 µM (inactive); with Malme-3M, 24.4 µM (inactive); with SK-MEL-5, 16.3 µM (inactive). Also, the GI50 in the assay on K562 is 16.4 µM (inactive); in the assay on OVCAR-5, > 100 µM (inactive); with CAKI-1, 68.4 µM (inactive); with SNB-19 it was 47 µM (inactive); with RXF 393, 17.1 µM (inactive); in the assay with NCI-H226, 64.7 µM (inactive). For the same compound, the figures for the GI50 in the assay with OVCAR-3, in the assay with ACHN and in the assay on KM12 were 28.1 µM (inactive), 98.9 µM (inactive) and 22.5 µM (inactive), respectively.
Regarding `CCC1c2[nH]c3ccccc3c2C[C@H]2C(=O)NC(Cc3ccccc3)C(=O)N12` (stereo not given in full), the GI50 is 21.2 µM (inactive) with SR; 20.6 µM (inactive) in the assay with COLO 205; 22.4 µM (inactive) in the assay on BT-549; 19.7 µM (inactive) in the assay with Malme-3M; 19.9 µM (inactive) in the assay with SK-MEL-5; 31.4 µM (inactive) with K562. In addition, the GI50 is 25.2 µM (inactive) with OVCAR-5; 35.4 µM (inactive) with CAKI-1; 34.9 µM (inactive) in the assay on SNB-19; 22.1 µM (inactive) in the assay on RXF 393; 28.4 µM (inactive) with NCI-H226; 31 µM (inactive) with OVCAR-3. The GI50 in the assay with ACHN was 30.5 µM (inactive); with HT-29, 23.5 µM (inactive); in the assay with KM12, 24.8 µM (inactive).
In the case of `N/C1=C/C(=O)NC(=O)c2c(c3ccccc3oc2=O)C1`, the GI50 in the assay on NCI-H460, in the assay with SR, in the assay with COLO 205, in the assay on BT-549, in the assay with Malme-3M and with K562 was > 100 µM (inactive) throughout. In addition, the GI50 in the assay with OVCAR-5, with CAKI-1, in the assay on SNB-19, with RXF 393, in the assay with NCI-H226 and with OVCAR-3 was > 100 µM (inactive) throughout. For the same compound, the GI50 in the assay on ACHN, in the assay with HT-29 and in the assay on KM12 was > 100 µM (inactive) in each case.
As for `CS(=O)(=O)CCC1CCC(=O)O1` (stereo not given), the GI50 in the assay on NCI-H460 is 69.5 µM (inactive); in the assay with SR it was 85.1 µM (inactive); in the assay with BT-549, 53 µM (inactive); in the assay on Malme-3M it was > 100 µM (inactive); in the assay on SK-MEL-5, > 100 µM (inactive); in the assay with K562 it was > 100 µM (inactive). The GI50 was > 100 µM (inactive) in the assay on OVCAR-5; > 100 µM (inactive) with CAKI-1; > 100 µM (inactive) with SNB-19; 49.2 µM (inactive) in the assay with RXF 393; > 100 µM (inactive) in the assay on NCI-H226; > 100 µM (inactive) in the assay with OVCAR-3. Moreover, the GI50 with ACHN was 31.5 µM (inactive); in the assay with HT-29 it was > 100 µM (inactive); with KM12, > 100 µM (inactive).
As to `C=C(C)CN(CC#N)CC(=C)C`, the GI50 with SR, with COLO 205, in the assay with BT-549, with Malme-3M, in the assay on SK-MEL-5 and in the assay on K562 was > 100 µM (inactive) in each case. For the same compound, the GI50 with OVCAR-5, with CAKI-1, in the assay on SNB-19, in the assay with RXF 393, in the assay on NCI-H226 and with OVCAR-3 was > 100 µM (inactive) in each case. Besides, the GI50 in the assay with ACHN, in the assay on HT-29 and in the assay with KM12 was > 100 µM (inactive) throughout.
As to `O=C(CSC1=NC(=O)C2(NN1)c1ccccc1-c1ccccc12)NC(=S)Nc1ccccc1`, the GI50 in the assay with NCI-H460 is > 10 µM (inactive); in the assay with SR it was 6.03 µM (inactive); in the assay on COLO 205 it was > 10 µM (inactive); in the assay with BT-549 it was > 10 µM (inactive); in the assay with Malme-3M, > 10 µM (inactive); in the assay on SK-MEL-5, > 10 µM (inactive). Further, the GI50 was > 10 µM (inactive) with K562; > 10 µM (inactive) in the assay with OVCAR-5; > 10 µM (inactive) with CAKI-1; > 10 µM (inactive) in the assay on SNB-19; > 10 µM (inactive) in the assay on RXF 393; 8.2 µM (inactive) in the assay on NCI-H226. The figures for the GI50 in the assay on ACHN, in the assay on HT-29 and in the assay with KM12 were 1.81 µM (inactive), > 10 µM (inactive) and > 10 µM (inactive), respectively.
Consider `CC[C@@]1(C)CCC2c3ccc(O)cc3CC[C@H]2C1C` (stereo not given in full), for which the GI50 in the assay with NCI-H460 is 22.7 µM (inactive); in the assay on SR, 14.3 µM (inactive); in the assay with COLO 205, 17 µM (inactive); in the assay on BT-549 it was 19 µM (inactive); with Malme-3M it was 16.6 µM (inactive); in the assay with SK-MEL-5, 16.9 µM (inactive). Further, the GI50 with K562 was 8.75 µM (inactive); in the assay with OVCAR-5, 18.8 µM (inactive); in the assay on CAKI-1, 21.2 µM (inactive); in the assay on SNB-19, 17.5 µM (inactive); in the assay with RXF 393 it was 13 µM (inactive); with OVCAR-3, 20.6 µM (inactive). Also, the GI50 in the assay with ACHN was 18.2 µM (inactive); in the assay with HT-29 it was 18 µM (inactive); with KM12 it was 15.8 µM (inactive).
`CC(C)(C)/C(=N\Nc1nc2ccccc2[nH]1)c1ccccn1`: the GI50 is > 100 µM (inactive) with NCI-H460; > 100 µM (inactive) with SR; 33 µM (inactive) with COLO 205; > 100 µM (inactive) with BT-549; 9.18 µM (inactive) in the assay with Malme-3M; 87.9 µM (inactive) in the assay on SK-MEL-5. Moreover, the GI50 is 99.8 µM (inactive) with K562; 48.2 µM (inactive) in the assay with CAKI-1; > 100 µM (inactive) in the assay with SNB-19; > 100 µM (inactive) with RXF 393; > 100 µM (inactive) in the assay on NCI-H226; 24.3 µM (inactive) with OVCAR-3. Also, the GI50 in the assay with ACHN was 81.3 µM (inactive); in the assay with HT-29 it was 26.2 µM (inactive); in the assay with KM12, 86.5 µM (inactive).
Regarding `OCc1ccccc1O[C@H]1O[C@H](CO)[C@@H](O)[C@H](O)[C@H]1O`, the GI50 with NCI-H460 is > 100 µM (inactive); in the assay with SR, > 10 µM (inactive); in the assay on COLO 205 it was > 100 µM (inactive); in the assay on BT-549, > 100 µM (inactive); with Malme-3M, > 100 µM (inactive); with SK-MEL-5 it was > 100 µM (inactive). Besides, the GI50 in the assay with OVCAR-5, in the assay on CAKI-1, in the assay with RXF 393, with NCI-H226, in the assay with OVCAR-3 and in the assay on ACHN was > 100 µM (inactive) throughout. Further, the GI50 with HT-29 and with KM12 was > 100 µM (inactive) throughout.
`Clc1cc(Cl)c2cc3cccc[n+]3cc2c1Cl`: the GI50 in the assay on NCI-H460 is 16.3 µM (inactive); in the assay on SR, 12.2 µM (inactive); with COLO 205, 14.8 µM (inactive); with BT-549 it was 6.76 µM (inactive); in the assay with Malme-3M, 22.2 µM (inactive); in the assay on SK-MEL-5 it was 16 µM (inactive). The GI50 with K562 was 19 µM (inactive); in the assay on OVCAR-5, 19.2 µM (inactive); in the assay on CAKI-1 it was 6.17 µM (inactive); in the assay with SNB-19 it was 14.9 µM (inactive); with NCI-H226, 16.4 µM (inactive); in the assay with OVCAR-3, 12.1 µM (inactive). Besides, the GI50 in the assay on ACHN is 16.3 µM (inactive); in the assay with HT-29, 15.5 µM (inactive); with KM12, > 10 µM (inactive).
As to `CCc1cc2c(oc3cc(C)ccc32)c(=O)n1C`, the GI50 with NCI-H460, with SR, in the assay with BT-549, in the assay with Malme-3M, with K562 and in the assay on OVCAR-5 was > 10 µM (inactive) each time. The GI50 in the assay with SNB-19, in the assay with RXF 393, in the assay with NCI-H226, with OVCAR-3, with ACHN and in the assay with HT-29 was > 10 µM (inactive) throughout. Also, in the assay on KM12, the GI50 is > 10 µM (inactive).
As for `c1ccc(Cc2cccc3cc(-c4ccc(-c5ccccc5)cc4)[nH]c23)cc1`, the GI50 in the assay on NCI-H460 is > 100 µM (inactive); with SR it was 16.9 µM (inactive); in the assay with COLO 205, > 100 µM (inactive); in the assay on BT-549, > 100 µM (inactive); with Malme-3M, 1.76 µM (inactive); in the assay on SK-MEL-5 it was > 100 µM (inactive). The GI50 with OVCAR-5 is > 100 µM (inactive); with CAKI-1 it was 75.7 µM (inactive); with SNB-19, 93.3 µM (inactive); in the assay on NCI-H226 it was > 100 µM (inactive); in the assay with OVCAR-3 it was > 100 µM (inactive); with ACHN it was > 100 µM (inactive). Further, the GI50 with HT-29 was > 100 µM (inactive); in the assay with KM12, 86.9 µM (inactive).
As for `CCC1(O)C(=O)OCc2c1cc1n(c2=O)Cc2cc3cc(N)ccc3nc2-1` (stereo not given), the GI50 in the assay on NCI-H460 is < 0.01 µM (active); with SR, < 0.01 µM (active); in the assay on COLO 205, 0.366 µM (active); in the assay on BT-549, < 0.01 µM (active); with Malme-3M it was 0.0299 µM (active); with SK-MEL-5 it was < 0.0136 µM (active). Further, the GI50 in the assay on K562 was < 0.0127 µM (active); in the assay on OVCAR-5, < 0.0271 µM (active); with CAKI-1, < 0.01 µM (active); in the assay on SNB-19, < 0.01 µM (active); with NCI-H226, < 0.0338 µM (active); with OVCAR-3, 0.0466 µM (active). Also, the GI50 was < 0.01 µM (active) with ACHN, 0.0311 µM (active) in the assay with HT-29 and 0.0593 µM (active) with KM12.
